Experimental findings from patent US20260226086A1, “COMPOUNDS AND COMPOSITIONS AS STAT3 DEGRADERS AND USES THEREOF” (REGENTS OF THE UNIVERSITY OF MICHIGAN, priority 2023, published 2026) are described below.

Assay type in all cases: cell-based
The target in one test is T1, STAT3 (Homo sapiens, UniProt P40763).
T1 construct: This cell line is a clone created by using CRISPR-Cas9 to fuse HiBiT to the 3′ end of STAT3 in HeLa cells; host or cells: STAT3-HiBiT KI HeLa cell line (CRISPR-Cas9 knock-in clone)
T1 sequence (P40763 whole entry): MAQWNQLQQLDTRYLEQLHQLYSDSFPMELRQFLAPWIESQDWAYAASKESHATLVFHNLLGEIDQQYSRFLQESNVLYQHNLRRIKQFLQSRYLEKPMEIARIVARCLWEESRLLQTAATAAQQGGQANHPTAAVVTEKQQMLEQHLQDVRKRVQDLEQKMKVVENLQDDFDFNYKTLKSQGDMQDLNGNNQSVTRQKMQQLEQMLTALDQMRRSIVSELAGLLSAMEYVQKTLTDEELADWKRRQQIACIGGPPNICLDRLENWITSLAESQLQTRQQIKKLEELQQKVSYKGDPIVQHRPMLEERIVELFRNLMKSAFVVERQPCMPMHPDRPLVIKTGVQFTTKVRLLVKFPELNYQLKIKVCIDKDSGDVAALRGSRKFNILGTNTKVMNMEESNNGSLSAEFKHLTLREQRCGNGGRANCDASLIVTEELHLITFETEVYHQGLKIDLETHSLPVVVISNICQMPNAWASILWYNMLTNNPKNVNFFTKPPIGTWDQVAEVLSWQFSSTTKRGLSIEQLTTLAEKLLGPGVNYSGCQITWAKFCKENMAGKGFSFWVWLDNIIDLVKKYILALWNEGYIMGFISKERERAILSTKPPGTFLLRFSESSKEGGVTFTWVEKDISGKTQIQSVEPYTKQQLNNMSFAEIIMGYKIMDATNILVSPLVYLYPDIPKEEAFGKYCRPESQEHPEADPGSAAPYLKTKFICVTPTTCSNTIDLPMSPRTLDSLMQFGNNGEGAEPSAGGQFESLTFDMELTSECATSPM
As to the kind of experiment: HiBiT assay, STAT3 degradation in STAT3-HiBiT KI HeLa cells. Conditions: for Dmax at 1 µM / DC50: 24 h; for DC50: read-out: STAT3 Degradation (HeLa 24 h HiBit) DC50. As to the method:
STAT3 degradation may be determined by HiBiT assay. STAT3-HiBiT KI HeLa cell line, which is a clone created by using CRTISPR-Cas9 to fuse HiBiT to the 3′ end of STAT3 in HeLa cells, may be used for this assay. In a typical procedure, cells seeded at certain amounts of cells (e.g., 20000 cells) per well are incubated with serially diluted compounds for certain period of time (e.g., 24 hours) under certain conditions (e.g., at 37° C. with 5% CO2). At the end of treatment, Nano-Glo HiBiT Lytic Detection reagents is added to the wells and luminescence is acquired on TECAN SPARK plate reader. Untreated cells are used as control. Data points are fit with a four-parameter equation to generate a concentration-response curve. IC50 values are calculated using a nonlinear regression analysis of the mean±SD from triplicate.
STAT3-HiBiT KI HeLa cell line was purchased from Promega. This cell line is a clone created by using CRISPR-Cas9 to fuse HiBiT to the 3′ end of STAT3 in HeLa cells. DMEM medium and FBS were purchased from Gibco/Thermo Fisher Scientific. STAT3 degradation was determined based on quantification of luminescent signal using Nano-Glo HiBiT Lytic Detection System. In a typical procedure, cells seeded at 20000 cells per well in 96-well white plates (Corning) were incubated with serially diluted compounds for 24 hours at 37° C. with 5% CO2. At the end of treatment, Nano-Glo HiBiT Lytic Detection reagents was added to the wells and luminescence was acquired on TECAN SPARK plate reader. Untreated cells were used as control. Data points were fit with a four-parameter equation to generate a concentration-response curve. IC50 values were calculated using a nonlinear regression analysis of the mean±SD from triplicate.

The test system of another test is SU-DHL-1 cells. As to the kind of experiment: CellTiter-Glo 2.0 cell viability assay, SU-DHL-1. Particulars: Homo sapiens, 96 h, 4 days. As to the method:
(§1) For example, cell viability may be determined by CellTiter-Glo 2.0 Cell Viability Assay. In a typical procedure, cells seeded at certain amounts of cells (e.g., 1000 cells) per well are incubated with serially diluted compounds for certain period (e.g., 4 days) under certain conditions (e.g., at 37° C. with 5% CO2). At the end of treatment, CellTiter-Glo 2.0 is added to the wells and luminescence is acquired on TECAN SPARK plate reader. Untreated cells are used as control, Data points are fit with an equation (e.g., a four-parameter equation) to generate a concentration-response curve. IC50 values are calculated using a nonlinear regression analysis of the mean±SD from triplicate.
(§2) SU-DHL-1 and SUP-M2 cell viability was determined by CellTiter-Glo 2.0 Cell Viability Assay (Promega). SU-DHL-1 cell line was purchased from ATCC (Manassas, VA) and SUP-M2 (ACC-509) was purchased from DSMZ (Germany). RPMI 1640 medium and fetal bovine serum (FBS) were purchased from Gibco/Thermo Fisher Scientific. In a typical procedure, cells seeded at 1000 cells per well in 384-well white plates (Corning) were incubated with serially diluted compounds for 4 days at 37° C. with 5% C02. At the end of treatment, CellTiter-Glo 2.0 was added to the wells and luminescence was acquired on TECAN SPARK plate reader. Untreated cells were used as control. Data points were fit with a four-parameter equation to generate a concentration-response curve. IC50 values were calculated using a nonlinear regression analysis of the mean±SD from triplicate.

Another test deals with SUP-M2 cells. As to the kind of experiment: CellTiter-Glo 2.0 cell viability assay, SUP-M2. Conditions: SUP-M2, 96 h, 4 days. On the procedure:
as §1, §2

With `CC(=O)N1CC[C@H]2CC[C@@H](C(=O)N[C@@H](CCC(N)=O)COc3cccc(CCCc4cn([C@H](C(=O)N5C[C@H](O)C[C@H]5C(=O)N[C@@H](C)c5ccc(-c6scnc6C)cc5)C(C)(C)C)nn4)c3Cl)N2C(=O)[C@@H](NC(=O)c2cc3cc(C(=O)P(=O)(O)O)ccc3[nH]2)C1` [Compound 1, (2-(((5S,8S,10aR)-3-acetyl-8-(((S)-5-amino-1-(2-chloro-3-(3-(1-((S)-1-((2S,4R)-4-hydroxy-2-(((S)-1-(4-(4-methylthiazol-5-yl)phenyl)ethyl)carbamoyl)pyrrolidin-1-yl)-3,3-dimethyl-1-oxobutan-2-yl)-1H-1,2,3-triazol-4-yl)propyl)phenoxy)-5-oxopentan-2-yl)carbamoyl)-6-oxodecahydropyrrolo[1,2-a][1,5]diazocin-5-yl)carbamoyl)-1H-indole-5-carbonyl)phosphonic acid], on STAT3, the Dmax at 1 µM is above 80% and the DC50 was below 0.01 µM. Further, the IC50 with SU-DHL-1 cells is below 0.01 µM. Besides, the IC50 with SUP-M2 cells was below 0.01 µM.

Consider `Cc1ncsc1-c1ccc([C@H](C)NC(=O)[C@@H]2C[C@@H](O)CN2C(=O)[C@@H](n2cc(CCCc3cccc(OC[C@H](CCC(N)=O)NC(=O)[C@@H]4CC[C@@H]5CCN(C(=O)C(C)C)C[C@H](NC(=O)c6cc7cc(C(=O)P(=O)(O)O)ccc7[nH]6)C(=O)N54)c3Cl)nn2)C(C)(C)C)cc1` [Compound 2, (2-(((5S,8S,10aR)-8-(((S)-5-amino-1-(2-chloro-3-(3-(1-((S)-1-((2S,4R)-4-hydroxy-2-(((S)-1-(4-(4-methylthiazol-5-yl)phenyl)ethyl)carbamoyl)pyrrolidin-1-yl)-3,3-dimethyl-1-oxobutan-2-yl)-1H-1,2,3-triazol-4-yl)propyl)phenoxy)-5-oxopentan-2-yl)carbamoyl)-3-isobutyryl-6-oxodecahydropyrrolo[1,2-a][1,5]diazocin-5-yl)carbamoyl)-1H-indole-5-carbonyl)phosphonic acid], for which, on STAT3, the Dmax at 1 µM is above 80% and the DC50 is below 0.01 µM. The IC50 in the test with SU-DHL-1 cells was below 0.01 µM. This compound also came in with an IC50 in the test with SUP-M2 cells below 0.01 µM.

`Cc1ncsc1-c1ccc([C@H](C)NC(=O)[C@@H]2C[C@@H](O)CN2C(=O)[C@@H](n2cc(CCc3cccc(OC[C@H](CCC(N)=O)NC(=O)[C@@H]4CC[C@@H]5CCN(C(=O)C(C)C)C[C@H](NC(=O)c6cc7cc(C(=O)P(=O)(O)O)ccc7[nH]6)C(=O)N54)c3Cl)nn2)C(C)(C)C)cc1` [Compound 3, (2-(((5S,8S,10aR)-8-(((S)-5-amino-1-(2-chloro-3-(2-(1-((S)-1-((2S,4R)-4-hydroxy-2-(((S)-1-(4-(4-methylthiazol-5-yl)phenyl)ethyl)carbamoyl)pyrrolidin-1-yl)-3,3-dimethyl-1-oxobutan-2-yl)-1H-1,2,3-triazol-4-yl)ethyl)phenoxy)-5-oxopentan-2-yl)carbamoyl)-3-isobutyryl-6-oxodecahydropyrrolo[1,2-a][1,5]diazocin-5-yl)carbamoyl)-1H-indole-5-carbonyl)phosphonic acid] came in with a Dmax at 1 µM on STAT3 above 80%. In addition, the DC50 at STAT3 was in the range of 0.01 to 0.1 µM. The IC50 in the test on SU-DHL-1 cells and in the test with SUP-M2 cells was 0.01 to 0.1 µM in each case.

In the case of `CC(=O)N1CC[C@H]2CC[C@@H](C(=O)N[C@@H](CCC(N)=O)COc3cccc(CCCc4cn([C@H](C(=O)N5C[C@H](O)C[C@H]5C(=O)N[C@@H](CCN5CCOCC5)c5ccc(-c6scnc6C)cc5)C(C)(C)C)nn4)c3Cl)N2C(=O)[C@@H](NC(=O)c2cc3cc(C(=O)P(=O)(O)O)ccc3[nH]2)C1` [Compound 4, (2-(((5S,8S,10aR)-3-acetyl-8-(((S)-5-amino-1-(2-chloro-3-(3-(1-((S)-1-((2S,4R)-4-hydroxy-2-(((S)-1-(4-(4-methylthiazol-5-yl)phenyl)-3-morpholinopropyl)carbamoyl)pyrrolidin-1-yl)-3,3-dimethyl-1-oxobutan-2-yl)-1H-1,2,3-triazol-4-yl)propyl)phenoxy)-5-oxopentan-2-yl)carbamoyl)-6-oxodecahydropyrrolo[1,2-a][1,5]diazocin-5-yl)carbamoyl)-1H-indole-5-carbonyl)phosphonic acid], the Dmax at 1 µM on STAT3 was above 80%. At STAT3, the DC50 fell in the range of 0.01 to 0.1 µM. Further, the IC50 in the test on SU-DHL-1 cells and in the test on SUP-M2 cells was 0.01 to 0.1 µM in each case.

In the case of `COCCOCCOCCOC[C@H](NC(=O)[C@@H]1C[C@@H](O)CN1C(=O)[C@@H](n1cc(CCCc2cccc(OC[C@H](CCC(N)=O)NC(=O)[C@@H]3CC[C@@H]4CCN(C(C)=O)C[C@H](NC(=O)c5cc6cc(C(=O)P(=O)(O)O)ccc6[nH]5)C(=O)N43)c2Cl)nn1)C(C)(C)C)c1ccc(-c2scnc2C)cc1` [Compound 35, (2-(((5S,8S,10aR)-3-acetyl-8-(((S)-5-amino-1-(2-chloro-3-(3-(1-((S)-1-((2S,4R)-4-hydroxy-2-(((R)-13-(4-(4-methylthiazol-5-yl)phenyl)-2,5,8,11-tetraoxatridecan-13-yl)carbamoyl)pyrrolidin-1-yl)-3,3-dimethyl-1-oxobutan-2-yl)-1H-1,2,3-triazol-4-yl)propyl)phenoxy)-5-oxopentan-2-yl)carbamoyl)-6-oxodecahydropyrrolo[1,2-a][1,5]diazocin-5-yl)carbamoyl)-1H-indole-5-carbonyl)phosphonic acid], on STAT3, the Dmax at 1 µM was above 80% and the 50% degradation concentration (DC50) was 0.01 to 0.1 µM. Also, the IC50 in the test on SUP-M2 cells was 0.01 to 0.1 µM.

For the compound `CCS(=O)(=O)c1ccc(CNC(=O)[C@H](CCC(N)=O)NC(=O)[C@@H]2CC[C@@H]3CCN(C(=O)CCCCCc4cn([C@H](C(=O)N5C[C@H](O)C[C@H]5C(=O)N[C@@H](COCCOCCOC)c5ccc(-c6scnc6C)cc5)C(C)(C)C)nn4)C[C@H](NC(=O)c4cc5cc(C(=O)P(=O)(O)O)ccc5[nH]4)C(=O)N32)cc1` [Compound 40], on STAT3, the DC50 was in the range of 0.01 to 0.1 µM and the “STAT3 Degradation (HeLa 24 h HiBit) Dmax (@1 μM)” value is reported as “A (A (>=80%))”. The compound further showed an IC50 with SUP-M2 cells of 0.01 to 0.1 µM.

For `COCCOCCOC[C@H](NC(=O)[C@@H]1C[C@@H](O)CN1C(=O)[C@@H](n1cc(CCCc2cccc(OC[C@H](CCC(N)=O)NC(=O)[C@@H]3CC[C@@H]4CCN(C(C)=O)C[C@H](NC(=O)c5cc6cc(C(=O)P(=O)(O)O)ccc6[nH]5)C(=O)N43)c2Cl)nn1)C(C)(C)C)c1ccc(-c2scnc2C)cc1` [Compound 41, (2-(((5S,8S,10aR)-3-acetyl-8-(((S)-5-amino-1-(2-chloro-3-(3-(1-((S)-1-((2S,4R)-4-hydroxy-2-(((R)-2-(2-(2-methoxyethoxy)ethoxy)-1-(4-(4-methylthiazol-5-yl)phenyl)ethyl)carbamoyl)pyrrolidin-1-yl)-3,3-dimethyl-1-oxobutan-2-yl)-1H-1,2,3-triazol-4-yl)propyl)phenoxy)-5-oxopentan-2-yl)carbamoyl)-6-oxodecahydropyrrolo[1,2-a][1,5]diazocin-5-yl)carbamoyl)-1H-indole-5-carbonyl)phosphonic acid], at STAT3, the DC50 lay in the range of 0.01 to 0.1 µM and the “STAT3 Degradation (HeLa 24 h HiBit) Dmax (@1 μM)” value is listed as “A (A (>=80%))”. Further, in the test on SUP-M2 cells, the IC50 was 0.01 to 0.1 µM.

`CCS(=O)(=O)c1ccc(CNC(=O)[C@H](CCC(N)=O)NC(=O)[C@@H]2CC[C@@H]3CCN(C(=O)CCCCCc4cn([C@H](C(=O)N5C[C@H](O)C[C@H]5C(=O)N[C@@H](COCCOCCOCCOC)c5ccc(-c6scnc6C)cc5)C(C)(C)C)nn4)C[C@H](NC(=O)c4cc5cc(C(=O)P(=O)(O)O)ccc5[nH]4)C(=O)N32)cc1` [Compound 45]: at STAT3, the Dmax at 1 µM was above 80% and the DC50 lay in the range of 0.01 to 0.1 µM. The compound also showed an IC50 in the test on SUP-M2 cells of 0.01 to 0.1 µM.
